ChEMBL document CHEMBL1155092, “Antibacterial activity of labdane diterpenoids from Stemodia foliosa” (2008)
In brackets after ≈: the same amount, converted by molar mass. Activity calls are given as the source filed them. The calls are words filed in the database; no cut-off is given here.

Columns and labels:
Staphylococcus aureus [1] = test: Antimicrobial activity against Staphylococcus aureus; format: functional
Micrococcus luteus [2] = test: Antimicrobial activity against Micrococcus luteus; format: functional
Bacillus anthracis [3] = test: Antimicrobial activity against Bacillus anthracis; format: functional
Bacillus subtilis [4] = test: Antimicrobial activity against Bacillus subtilis; format: functional
Mycolicibacterium phlei [5] = test: Antimicrobial activity against Mycobacterium phlei; format: functional
[6] = system: Mycolicibacterium smegmatis; test: Antimicrobial activity against Mycobacterium smegmatis; format: functional
Staphylococcus aureus [7] = test: Antimicrobial activity against Staphylococcus aureus at 50 ug/ml; format: functional, organism-based
Bacillus anthracis [8] = test: Antimicrobial activity against Bacillus anthracis at 50 ug/ml; format: functional, organism-based
Bacillus subtilis [9] = test: Antimicrobial activity against Bacillus subtilis at 50 ug/ml; format: functional, organism-based
[10] = system: Mycolicibacterium smegmatis; test: Antimicrobial activity against Mycobacterium smegmatis at 50 ug/ml; format: functional, organism-based
Mycolicibacterium phlei [11] = test: Antimicrobial activity against Mycobacterium phlei at 50 ug/ml; format: functional, organism-based
Bacillus cereus [12] = test: Antimicrobial activity against Bacillus cereus at 50 ug/ml; format: functional, organism-based
Micrococcus luteus [13] = test: Antimicrobial activity against Micrococcus luteus at 50 ug/ml; format: functional, organism-based
Bacillus cereus [14] = test: Antimicrobial activity against Bacillus cereus; format: functional

Row | SMILES | MIC (Staphylococcus aureus [1]) | MIC (Micrococcus luteus [2]) | MIC (Bacillus anthracis [3]) | MIC (Bacillus subtilis [4]) | MIC (Mycolicibacterium phlei [5]) | MIC [6] | Activity (Staphylococcus aureus [7]) | Activity (Bacillus anthracis [8]) | Activity (Bacillus subtilis [9]) | Activity [10] | Activity (Mycolicibacterium phlei [11]) | Activity (Bacillus cereus [12]) | Activity (Micrococcus luteus [13]) | MIC (Bacillus cereus [14])
1 | CC[C@H]1OC(=O)[C@H](C)[C@@H](O[C@H]2C[C@@](C)(OC)[C@@H](O)[C@H](C)O2)[C@H](C)[C@@H](O[C@@H]2O[C@H](C)C[C@H](N(C)C)[C@H]2O)[C@](C)(OC)C[C@@H](C)C(=O)[C@H](C)[C@@H](O)[C@]1(C)O [CLARITHROMYCIN] | 0.8 µg/mL (≈ 1.07 µM) | 2 µg/mL (≈ 2.67 µM) | 1.3 µg/mL (≈ 1.74 µM) | 1.7 µg/mL (≈ 2.27 µM) | 0.5 µg/mL (≈ 0.668 µM) | 0.5 µg/mL (≈ 0.668 µM) |  |  |  |  |  |  |  | 
2 | C=C[C@@]1(C)CC[C@@H]2[C@@]3(C)CCCC(C)(C)[C@@H]3[C@@H](OC(C)=O)C[C@@]2(C)O1 |  |  |  |  |  |  | inactive | inactive | inactive | inactive | inactive | inactive | inactive | 
3 | C=C[C@@]1(C)CC[C@@H]2[C@@]3(C)CCCC(C)(C)[C@@H]3[C@@H](OC(=O)CC(=O)OCCCC)C[C@@]2(C)O1 |  |  |  |  |  |  | inactive | inactive | inactive | inactive | inactive | inactive | inactive | 
4 | C=C[C@@]1(C)CC[C@@H]2[C@@]3(C)CCCC(C)(C)[C@@H]3[C@@H](OC(=O)CC(=O)O)C[C@@]2(C)O1 | 15 µg/mL (≈ 38.2 µM) | 17 µg/mL (≈ 43.3 µM) | 20 µg/mL (≈ 51 µM) | 15 µg/mL (≈ 38.2 µM) | 9 µg/mL (≈ 22.9 µM) | 7 µg/mL (≈ 17.8 µM) |  |  |  |  |  |  |  | 15 µg/mL (≈ 38.2 µM)
